These results are taken from patent US7541466B2, “Tetrahydroisoquinoline derivatives for treating protein trafficking diseases” (Genzyme Corporation, priority 2003, dated 2009).

Broadly, the pEC50 is the negative decadic logarithm of the EC50, by convention in mol/L.

Assay [1] has as its system wild-type C57black6/J mice. The note with it: female wild-type mice; 4 g/kg/day dose for 2 days; previously measured; cited from earlier work.
In assay [2] the target is T1, ΔF508 CFTR (Homo sapiens, UniProt P13569, DEL508-508).
T1 construct: expressed in transfected cells
T1 sequence (P13569 with tags, fused parts or gaps DEL508-508): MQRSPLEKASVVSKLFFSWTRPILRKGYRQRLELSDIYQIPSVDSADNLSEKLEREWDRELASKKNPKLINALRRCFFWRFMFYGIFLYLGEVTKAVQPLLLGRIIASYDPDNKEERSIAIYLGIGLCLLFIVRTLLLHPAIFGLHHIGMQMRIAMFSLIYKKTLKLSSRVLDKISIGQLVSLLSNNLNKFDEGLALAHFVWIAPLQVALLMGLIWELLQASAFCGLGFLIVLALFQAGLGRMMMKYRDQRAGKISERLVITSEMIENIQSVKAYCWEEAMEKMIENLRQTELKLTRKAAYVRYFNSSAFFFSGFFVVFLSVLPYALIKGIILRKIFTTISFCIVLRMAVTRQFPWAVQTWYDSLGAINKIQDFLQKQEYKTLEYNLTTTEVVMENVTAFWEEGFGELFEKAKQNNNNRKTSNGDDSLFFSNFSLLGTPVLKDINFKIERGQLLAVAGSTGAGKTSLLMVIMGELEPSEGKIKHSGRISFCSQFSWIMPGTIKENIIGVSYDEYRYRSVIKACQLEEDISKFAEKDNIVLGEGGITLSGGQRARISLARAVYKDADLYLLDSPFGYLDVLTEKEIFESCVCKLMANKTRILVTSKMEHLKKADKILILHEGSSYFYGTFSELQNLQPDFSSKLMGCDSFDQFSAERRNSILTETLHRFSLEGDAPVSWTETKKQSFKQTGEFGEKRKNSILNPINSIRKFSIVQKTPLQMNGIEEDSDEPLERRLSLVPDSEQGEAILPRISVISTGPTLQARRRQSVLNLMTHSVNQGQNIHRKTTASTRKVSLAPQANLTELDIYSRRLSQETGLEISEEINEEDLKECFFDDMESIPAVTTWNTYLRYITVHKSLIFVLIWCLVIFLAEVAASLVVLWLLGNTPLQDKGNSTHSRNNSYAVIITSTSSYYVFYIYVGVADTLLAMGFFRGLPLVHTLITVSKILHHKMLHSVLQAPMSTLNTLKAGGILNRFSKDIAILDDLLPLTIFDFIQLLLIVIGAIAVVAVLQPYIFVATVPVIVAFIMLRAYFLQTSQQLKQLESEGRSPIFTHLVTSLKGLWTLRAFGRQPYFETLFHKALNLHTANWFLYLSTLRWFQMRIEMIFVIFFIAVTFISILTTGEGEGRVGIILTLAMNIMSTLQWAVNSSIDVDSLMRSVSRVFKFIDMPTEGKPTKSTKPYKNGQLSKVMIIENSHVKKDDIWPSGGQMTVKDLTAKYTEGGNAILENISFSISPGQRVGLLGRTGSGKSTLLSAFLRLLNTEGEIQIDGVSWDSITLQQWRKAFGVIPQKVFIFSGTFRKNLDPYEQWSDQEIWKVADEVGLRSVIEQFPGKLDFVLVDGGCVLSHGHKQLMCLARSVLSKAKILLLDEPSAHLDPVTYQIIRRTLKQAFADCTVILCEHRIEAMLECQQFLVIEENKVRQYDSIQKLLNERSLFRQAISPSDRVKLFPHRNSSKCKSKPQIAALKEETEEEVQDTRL
As to the kind of experiment: MQAE chloride transport assay in C127 cells expressing ΔF508 CFTR. It is filed as cell-based, murine. The note with it: for Emax: C127, plateau level in activity at high compound concentration, read-out: % of Maximal Response; for pEC50: chloride transport activity, MQAE. How it is done:
C127 cells are a murine mammary epithelial cell line obtained from ATCC (#CRL 1616, American Type Culture Collection, Manassas, Va.). C127 cells were transfected with a bovine papilloma virus-based eukaryotic expression vector containing genes for ΔF508 CFTR and neomycin resistance whose expression was driven by a metallothionein promoter. Clonal cell populations resistant to G418 and positive for staining with anti-CFTR antibody were identified.
C127 cells expressing ΔF508 CFTR were grown in microtiter plates in DMEM (Dulbecco's Modified Eagle Medium, Hyclone, Logan, Utah) supplemented with fetal bovine serum, antibiotics, and glutamine in a 37° C., 5% CO2 atmosphere. Once confluent, the cells were loaded overnight with the disclosed compounds and a fluorescent dye sensitive to chloride ion concentration, N-(ethoxycarbonylmethyl)-6-methoxy quinolinium bromide (MQAE) (Verkman, Am. J. Physiol. 259 C375-C388 (1990)).
The following day, cells were washed with chloride-containing buffer to remove extracellular MQAE and to quench intracellular MQAE fluorescence. Chloride buffer was flicked out and replaced with nitrate buffer with added forskolin and IBMX (isobutylmethylxanthine) to stimulate CFTR activity. […] Buffers were adjusted to pH 7.4 and contained: 10 mM HEPES (N-2-Hydroxyethylpiperazine-N′-2-ethanesulfonic acid), 2.4 mM K2HPO4, 0.6 mM KH2PO4, 1.0 mM CaSO4, 1.0 mM MgSO4, 150 mM NaCl or NaNO3, and 25 mM glucose.
The increase in MQAE fluorescence as a function of time was followed using 360 nm excitation and 460 nm emission wavelengths. Fluorescence increased as chloride flowed out of cells through CFTR and the rate of increase in fluorescence over the first five minutes was taken as a measure of chloride transport activity.
Cells were treated with mixtures of up to 100 compounds per well for ca. 18 hours before the assay for chloride transport activity. […] Dose-response curves were generated and compounds were ranked based on their EC50 values and maximal responses (the plateau level in activity at high compound concentration, as a percentage of the low temperature response).

The mark [3] stands for this setting: as a percentage of the low temperature response.

Structures are written as SMILES. pEC50: −log10 of the molar value.

For the molecule `C[N+](C)(C)[O-]` [trimethylamine oxide, trimethylamine-N-oxide], in assay [1], the “increase of forskolin response in RPD” value was 7.5 mV. For `CCOc1cccc(NC(=O)[C@@H]2Cc3ccccc3CN2C(=O)c2cc(OC3CCCCC3)ccn2)c1` [Compound 111], the Emax in assay [2] (setting [3]) was determined as 73%. Also, the pEC50 in assay [2] (C127 ΔF508 CFTR cells) was 6.82. Take `O=C(Nc1nccs1)C1Cc2ccccc2CN1C(=O)c1cccc(Oc2ccccc2)c1` (racemic) [Compound 100]: the Emax in assay [2] (setting [3]) was 59%. In assay [2] (C127 ΔF508 CFTR cells), this molecule gave a pEC50 of 6.37. The like results for `CCCCCc1ccc(NC(=O)[C@@H]2Cc3ccccc3CN2C(=O)c2cccc(OCc3ccccc3)c2)cc1` [Compound 114] were, in that order, 72% and 7.23. Turning to `CCCCCc1ccc(NC(=O)[C@@H]2Cc3ccccc3CN2C(=O)c2cccc(OC(C)(C)C)c2)cc1` [Compound 122], in assay [2] (setting [3]), the Emax was 83%. The pEC50 in assay [2] (C127 ΔF508 CFTR cells) is 8.00. Take `CCCCCc1ccc(NC(=O)[C@@H]2Cc3ccccc3CN2C(=O)c2ccc3c(c2)OCCO3)cc1` [Compound 135]: the Emax in assay [2] (setting [3]) came out at 56%. Also, the pEC50 in assay [2] (C127 ΔF508 CFTR cells) is 6.54. The like results for `CCc1ccc(NC(=O)C2Cc3ccccc3CN2C(=O)c2cccc(Oc3ccccc3)c2)cc1` (racemic) [Compound 79] were, in that order, 73% and 6.64. The corresponding values for `COc1ccc(NC(=O)[C@@H]2Cc3ccccc3CN2C(=O)c2cc(OC3CCCCC3)ccn2)cn1` [Compound 110] are 64% and 6.40.

For the molecule `CCCCCc1ccc(NC(=O)C2Cc3ccccc3CN2C(=O)c2cccc(Oc3ccccc3)c2)cc1` (racemic) [Compound 87], the Emax in assay [2] (setting [3]) amounted to 74%. As for `CCCCCc1ccc(NC(=O)[C@@H]2Cc3ccccc3CN2C(=O)c2cc(Cl)cc(Cl)c2)cc1` [Compound 133], the Emax in assay [2] (setting [3]) worked out at 70%. The pEC50 in assay [2] (C127 ΔF508 CFTR cells) is 7.85. In the case of `CCCCCc1ccc(NC(=O)[C@@H]2Cc3ccccc3CN2C(=O)c2ccc(OC)c(OCCN3CCOCC3)c2)cc1` [Compound 128, (S)-2-[4-Methoxy-3-(2-morpholin-4-yl-ethoxy)benzoyl]-1,2,3,4-tetrahydroisoquinoline-3-carboxylic acid (4-pentylphenyl)amide], in assay [2] (setting [3]), the Emax came out at 63%. The same molecule showed a pEC50 in assay [2] (C127 ΔF508 CFTR cells) of 6.96. The like results for `CCCCCc1ccc(NC(=O)[C@@H]2Cc3ccccc3CN2C(=O)c2cccc(Oc3ccc(OC)cc3)c2)cc1` [Compound 112] were, in that order, 71% and 7.41. `CCCCCc1ccc(NC(=O)[C@@H]2Cc3ccccc3CN2C(=O)c2ccc(OC)c(Oc3ccccc3)c2)cc1` [Compound 115]: in assay [2] (setting [3]), the Emax turned out to be 74%.

For the molecule `CCCCCc1ccc(NC(=O)[C@@H]2Cc3ccccc3CN2C(=O)c2cccc(Oc3ccccc3)c2)cn1` [Compound 107, (S)-2-(3-Phenoxybenzoyl)-1,2,3,4-tetrahydroisoquinoline-3-carboxylic acid(6-pentylpyridin-3-yl)amide], the Emax in assay [2] (setting [3]) was determined as 54%. `O=C(Nc1ccc(F)cc1)[C@@H]1Cc2ccccc2CN1C(=O)c1cc(OC2CCCCC2)ccn1` [Compound 109]: in assay [2] (setting [3]), the Emax turned out to be 87%. In addition, in assay [2] (C127 ΔF508 CFTR cells), the pEC50 is 7.02. In the case of `CCCCCc1ccc(NC(=O)[C@@H]2Cc3ccccc3CN2C(=O)c2cc(OC(C)C)c(OC)cn2)cc1` [Compound 145, (S)-2-(4-Isopropoxy-5-methoxypyridine-2-carbonyl)-1,2,3,4-tetrahydroisoquinoline-3-carboxylic acid(4-pentylphenyl)amide], in assay [2] (C127 ΔF508 CFTR cells), the pEC50 was 7.60. Also, the “% of Maximal Response” value in assay [2] (plateau level in activity at high compound concentration, as a percentage of the low temperature response) is on record as 75%. Turning to `CCCCCc1ccc(NC(=O)[C@@H]2Cc3ccccc3CN2C(=O)c2ccc(C)c(OC(C)C)c2)cc1` [Compound 143], in assay [2] (setting [3]), the Emax turned out to be 85%. For the same molecule, the negative-log EC50 (pEC50) in assay [2] (C127 ΔF508 CFTR cells) is 8.23. As to `Cc1ccc(NC(=O)C2Cc3ccccc3CN2C(=O)c2cccc(Oc3ccccc3)c2)cc1` (racemic) [Compound 67], the Percent of low-temperature response at 1.25 µM in assay [2] (C127, limiting concentration 1.25 μM, percentage of low temperature response, C127 ΔF508 CFTR cells, read-out: % Maximal Response @ 1.25 μM) stood at 85%. Moreover, the Emax in assay [2] (setting [3]) worked out at 70%. In assay [2] (C127 ΔF508 CFTR cells), this molecule showed a pEC50 of 6.57. `CCOc1cccc(NC(=O)C2Cc3ccccc3CN2C(=O)c2cccc(Oc3ccccc3)c2)c1` (racemic) [Compound 83]: the Emax in assay [2] (setting [3]) amounted to 79%. Besides, in assay [2] (C127 ΔF508 CFTR cells), the pEC50 was 6.55.

On to `CCCCCc1ccc(NC(=O)[C@@H]2Cc3ccccc3CN2C(=O)c2cccc(Oc3ccccc3)c2)cc1` [Compound 88], for which the Emax in assay [2] (setting [3]) is 76%. Regarding `CCCCCc1ccc(NC(=O)[C@@H]2Cc3ccccc3CN2C(=O)c2cc(OC)c(OC)c(OC)c2)cc1` [Compound 138], the Emax in assay [2] (setting [3]) came to 67%. In assay [2] (C127 ΔF508 CFTR cells), this molecule gave a pEC50 of 7.03.
